Measurements: US20130210804A1, “TRICYCLIC MGLUR5 RECEPTOR MODULATORS” (priority 2010, published 2013)
Where two headings read alike, the source gives them in different places.

Biological target: T1, human mGluR5A (Homo sapiens, UniProt P41594)
T1 construct: expressed in transfected cells; host or cells: CHO (Chinese Hamster Ovary) cells, kept under Puromycin and Zeocin selection
Experiment: Fluorescent Ca2+ mobilization (FLIPR) assay, potentiation of a sub-threshold (EC20, 300 nM) glutamate response
Format: cell-based
Details: CHO cells expressing human mGluR5A, potentiation in the presence of 300 nM glutamate
Text: The utility of the compounds in accordance with the present invention as positive allosteric modulators of metabotropic glutamate receptor activity, in particular mGluR5 activity, may be readily determined without undue experimentation by methodology well known in the art, including O'Brien et al., Molecular Pharmacology 2003, 64(3) 731-740. In particular, the compounds of the following examples had activity in reference assays by enhancing mGluR5 activity. […] Changes in intracellular Ca^2+ were measured with Fluo-4AM ester (Invitrogen/Molecular Probes), which was detected on a Fluorometric Imaging Plate Reader (FLIPR, Molecular Devices, Sunnyvale, Calif.). In a typical experiment the mGluR5 positive allosteric modulatory activity of the compounds of the present invention was determined in accordance with the following experimental method.
Chinese Hamster Ovary (CHO) cells expressing human mGluR5A were maintained in growth medium containing DMEM, 10% dialyzed Fetal Bovine Serum, 50 units/mL Penicillin, 50 ug/mL Streptomycin, 2 mM L-glutamine, 1×MEM non-essential amino acids, 1 mM sodium pyruvate, 25 mM HEPES, 55 uM 2-mercaptoethanol, 5 ug/mL Puromycin, and 250 ug/mL Zeocin at 37° C. and 5% CO2. The day before the experiment, the cells were washed and seeded in “plating media” containing only DMEM, 10% dialyzed Fetal Bovine Serum, 50 units/mL Penicillin, and 50 ug/mL Streptomycin at a density of 50,000 cells/well (100 uL/well) in black 384-well clear-bottom PDL-coated plates. The cells were grown overnight at 37° C. and 6% CO2. This overnight glutamine/glutamate starvation allowed for consistent expression of the mGluR5A receptor, and the ability to add a known amount of agonist (glutamate in most cases) on the day of the experiment.
The day of the experiment, the cells were washed with 37° C. Assay Buffer (Hanks Balanced Salt Solution with CaCl2 and MgCl2, 20 mM HEPES, 2.5 mM Probenecid, 0.1% BSA) with an automated plate washer (3×100 uL, aspiration 3 mm from bottom leaving ˜30 uL of buffer in each well). After washing, 30 uL of dye loading buffer (4 uM Fluo-4AM, 0.04% Pluronic acid, and 1% dialyzed FBS in assay buffer) were added to each well of the plates for 2 uM Fluo-4AM final concentration. The plates were incubated at 37° C. and 6% CO2 for 1 hour to allow for dye loading. After dye loading, the cells were washed again as above, and placed on the FLIPR. Assays were conducted with two possible scenarios: 1) To determine the potencies of the compounds, as either agonists of mGluR5 or potentiators of mGluR5 in the presence of a sub-threshold amount of glutamate, 10-point titrations of the compounds (1:3 dilution between each point, 30-0.0015 uM final concentrations) were added to the cells, followed by the addition of the EC20 of glutamate (300 nM) to the cells. 2) To determine the cooperativity of the compounds with the natural agonist (glutamate), single concentrations of the compounds were added to the cells, followed by the addition of a 10-point titration of glutamate (1:3 dilution between each point, 1000-0.05 uM final concentrations). […] For both scenarios above, operation of the FLIPR was the same. Baseline fluorescence was monitored for 10 seconds, followed by the addition of compounds diluted in Assay Buffer (1% DMSO concentration after this addition, 0.66% final DMSO concentration after agonist addition). After monitoring fluorescence for 5 minutes, during which time any intrinsic agonist activity of the compounds would have been detected, the agonist (glutamate) also diluted in assay buffer was then added to the cells. The response was then monitored for an additional 3 minutes. In scenario #1, the peak during the final 3 minutes was used for potentiator data, and the peak during the 5 minutes post compound addition was used for compound agonist data. […]

[1] = about/generally, read-out: EC50 for potentiating/enhancing the mGluR5 receptor in the FLIPR assay
[2] = inflection points, read-out: Representative FLIPR EC50 Values

T1 sequence (P41594 21-1180 isoform P41594-2 limits assumed): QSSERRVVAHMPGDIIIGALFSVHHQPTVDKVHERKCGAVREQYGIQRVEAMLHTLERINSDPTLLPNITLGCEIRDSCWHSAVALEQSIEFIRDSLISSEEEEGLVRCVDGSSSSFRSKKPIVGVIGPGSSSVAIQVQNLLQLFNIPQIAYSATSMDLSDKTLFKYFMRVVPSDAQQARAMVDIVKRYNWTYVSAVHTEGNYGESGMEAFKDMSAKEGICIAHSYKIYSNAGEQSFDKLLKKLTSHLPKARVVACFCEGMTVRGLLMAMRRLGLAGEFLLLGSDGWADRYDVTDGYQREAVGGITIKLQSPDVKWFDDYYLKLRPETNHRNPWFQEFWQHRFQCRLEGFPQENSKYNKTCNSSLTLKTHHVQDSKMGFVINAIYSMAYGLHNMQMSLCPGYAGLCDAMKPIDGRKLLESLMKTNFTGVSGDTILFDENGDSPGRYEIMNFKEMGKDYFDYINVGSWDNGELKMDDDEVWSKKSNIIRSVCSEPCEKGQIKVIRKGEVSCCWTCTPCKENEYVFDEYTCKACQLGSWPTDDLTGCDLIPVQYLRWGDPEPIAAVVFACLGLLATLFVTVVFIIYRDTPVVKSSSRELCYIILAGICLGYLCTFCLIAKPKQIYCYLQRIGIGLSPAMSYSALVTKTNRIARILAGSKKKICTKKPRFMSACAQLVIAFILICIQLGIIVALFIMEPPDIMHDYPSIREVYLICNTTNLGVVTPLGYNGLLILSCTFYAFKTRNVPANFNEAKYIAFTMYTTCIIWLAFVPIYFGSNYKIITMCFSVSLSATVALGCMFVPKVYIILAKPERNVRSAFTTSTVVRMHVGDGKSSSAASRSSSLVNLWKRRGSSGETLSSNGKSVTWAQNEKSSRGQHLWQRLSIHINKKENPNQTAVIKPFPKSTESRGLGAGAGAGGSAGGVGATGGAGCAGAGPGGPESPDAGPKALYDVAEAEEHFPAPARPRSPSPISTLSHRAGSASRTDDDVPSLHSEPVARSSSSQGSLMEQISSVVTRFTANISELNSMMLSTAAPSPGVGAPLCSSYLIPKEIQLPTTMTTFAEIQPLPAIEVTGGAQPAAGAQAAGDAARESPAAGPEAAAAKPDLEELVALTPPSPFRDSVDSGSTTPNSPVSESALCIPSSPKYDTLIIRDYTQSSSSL

Row | EC50 [1] | EC50 [2] | SMILES
1 | < 1000 nM | 31 nM | Cc1c[nH]c(-c2noc(C3CCC4C=Cc5ccccc5C(=O)N4C3)n2)c1 (racemic) [Example 7-7, (±) cis-(Z)-3-[3-(4-methyl-1H-pyrrol-2-yl)-1,2,4-oxadiazol-5-yl]-1,3,4,12a-tetrahydropyrido[1,2-b][2]benzazepin-6(2H)-one]
2 | < 1000 nM | 50 nM | N#Cc1ccc2c(c1)CCC1CCC(c3nc(-c4cc(Cl)c[nH]4)no3)CN1C2=O (racemic) [Example 18-1, (±) cis-9-cyano-3-[3-(4-chloro1H-pyrrol-2-yl)-1,2,4-oxadiazol-5-yl]-1,3,4,11,12,12a-hexahydropyrido[1,2-b][2]benzazepin-6(2H)-one]
3 | < 1000 nM |  | O=C1c2ccc(F)cc2C(F)(F)C[C@@H]2CC[C@H](c3nc(-c4ccc(F)cn4)no3)CN12 (racemic) [Example 20-3, (±) cis-9,11,11-trifluoro-3-[3-(5-fluoropuridin-2-yl)-1,2-4-oxadiazol-5-yl]-1,3,4,11,12,12a-hexahydropyrido[1,2-b][2]benzazepin-6(2H)-one]
4 | < 1000 nM |  | O=C1c2cnc(F)cc2CC[C@@H]2CC[C@H](c3noc(-c4ccc(F)cn4)n3)CN12 (single isomer, unassigned) [Example 24-6]
5 | < 1000 nM | 16 nM | Cc1c[nH]c(-c2noc([C@H]3CC[C@H]4CCc5ccccc5C(=O)N4C3)n2)c1 [Example 1-5, cis-(3S,12aS)-3-(3-(4-Methyl-1H-pyrrol-2-yl)-1,2,4-oxadiazol-5-yl)-1,3,4,11,12,12a-hexahydrobenzo[e]pyrido[1,2-a]azepin-6(2H)-one]
6 | < 1000 nM | 8 nM | O=C1c2ccc(F)cc2CC[C@@H]2CC[C@H](c3nc(-c4cc(Cl)c[nH]4)no3)CN12 [Example 3-1, (3S,12aS)-9-Fluoro-3-[3-(4-chloro1H-pyrrol-2-yl)-1,2,4-oxadiazol-5-yl]-1,3,4,11,12,12a-hexahydropyrido[1,2-b][2]benzazepin-6(2H)-one]
7 | < 1000 nM | 71 nM | O=C1c2ccccc2OC[C@@H]2CC[C@H](c3nc(-c4cc(Cl)c[nH]4)no3)CN12 [Example 11-8, (6aS,9S)-9-[3-(4-chloro-1H-pyrrol-2-yl)-1,2,4-oxadiazol-5-yl]-6,6a,7,8,9,10-hexahydro-12H-pyrido[2,1-c][1,4]benzoxazepin-12-one]
8 | < 1000 nM |  | COc1ccc2c(n1)CC[C@@H]1CC[C@H](c3nc(-c4cc(Cl)c[nH]4)no3)CN1C2=O [Example 13-2, (8S,10aS)-8-[3-(4-chloro-1H-pyrrol-2-yl)-1,2,4-oxadiazol-5-yl]-2-methoxy-8,9,10,10a,11,12-hexahydrodipyrido[1,2-a:2′,3′-e]azepin-5(7H)-one]
